# How the values were obtained:
# [1] = tested on: resistant mutants of NL4.3 strain (K103N, K65R and M184V); conditions: human PBMCs, NL4.3 mutants K103N
# [2] = tested on: JRCSF HIV-1 strain; assay: Reconstituted SCID mice infected with JRCSF HIV-1 strain; type: in vivo, mouse
# Procedure: FIG. 3. Efficacy of Compound 22 to inhibit viral replication in humanized mice. A) Reconstituted SCID mice were infected with JRCSF HIV-1 strain by intraperitoneal injection. Control group received by gavage labrafil and 5% DMSO (n=15) and treated group 20 mg/kg b.i.d of Compound 22 in labrafil and 5% DMSO (n=14) for 15 days. Two independent experiments were performed with 5 and 10 reconstituted mice for each group. Viral load was assessed by measuring viral RNA using the Amplicor HIV-1 Monitor from Roche. B) FACS analysis was performed on peritoneal wash at day 15 post-treatment to assess the CD8/CD4 ratio. C) Engrafted NSG humanized mice were treated by oral gavage with Compound 22 at either 20 mg or 40 mg/kg once a day for 30 days and indicated lymphocyte populations (CD45+; CD4+ and CD8+) were monitored by FACS analysis. D) NSG humanized mice were infected with the YU2 HIV-1 virus and treated either by oral gavage with Compound 22 at 40 mg/kg once a day for 30 days or by HAART (3TC-Tenofovir-Raltegravir and AZT). […] Viral load was assessed by measuring viral RNA using the Amplicor HIV-1 Monitor from Roche. […]
# Briefly, TCID50 (tissue culture infectious dose 50%) was determined by infecting human CD8+ T-cell-depleted peripheral blood mononuclear cells (PBMCs) from three donors which were stimulated by addition of IL-2, PHA and anti-CD3 beads (Dynal 11131D, Life Technologies). […] HIV RNA plasma levels were measured by RT-PCR (Amplicor HIV-1 test or AmpliPrep/COBAS TaqMan HIV-1 Test, Roche) at various times after infection.
# Cell suspensions were labeled with anti-human monoclonal antibodies (mAb) targeting the following cell-surface markers: CD45-FITC, CD3-PE, CD4-Pe Cy7, CD8-BV421 and CD19-APC (all from Biolegend). Washing and reagent dilutions were done with FACS buffer (PBS containing 2% fetal calf serum and 0.05% sodium azide (NaN3). All acquisitions were performed on a Cyan ADP (Beckman Coulter) flow cytometer. Data were analyzed with FlowJo software (Ashland, Oreg.). Cellular debris and dead cells were excluded by their light-scattering characteristics.
# [3] = tested on: lymphocyte populations (CD45+; CD4+ and CD8+); assay: Lymphocyte populations in engrafted humanized mice treated for 30 days; type: in vivo; conditions: 20 mg/kg or 40 mg/kg for one month, compared to controls without treatment
# Procedure: NOD.scid.IL2R−/− (NSG) mice were bred and maintained in individual ventilated cages and were fed autoclaved food and water.
# Briefly, newborn (<5 days old) NSG mice received sub-lethal (1Gy) total body irradiation with a Cs source, and then received 2×105 transduced or untransduced CD34+ human HSCs using a 50 μl Hamilton syringe via the intrahepatic (i.h.) route. All manipulations of NSG-HIS mice were performed under laminar flow. […] Mice were monitored three times a week for symptoms or signs of adverse events, according to a standard score sheet.
# [4] = tested on: primary macrophages; assay: Cell viability of treated primary macrophages; type: cell-based, human; conditions: macrophages under treatment (data not shown)
# Procedure: To generate monocyte derived macrophages (MDMs), monocytes were isolated using CD14 microbeads (catalog no. 130-050-201; Miltenyi) and cultured in X-VIVO10 medium (Lonza) supplemented with GM-CSF 1000 U/ml and M-CSF 100 ng/ml for 6 days. Monocytes were seeded at a cell count of 50,000 cells per well in a 96 well plate. After 6 days medium was replaced with X-VIVO10 w/o Cytokines. After 2 days Macrophages were treated with Compound 22 and/or its N-glucuronide metabolite o/n and next day infected with Yu-2 virus for 6 hrs, washed with PBS and cultured in medium containing the compounds for 12 days. Supernatant for p24 Elisa was collected 2 times a week.
# [5] = tested on: YU2 HIV-1 virus; assay: NSG humanized mice infected with YU2 HIV-1 virus, viral load; type: in vivo, mouse
# Procedure: All manipulations of NSG-HIS mice were performed under laminar flow. Gavage of mice was performed daily with a stainless steel gavage needle (Straight 22 Gauge, 1.4 inch in length). […] Mice were monitored three times a week for symptoms or signs of adverse events, according to a standard score sheet.
# Mice were infected intraperitoneally i.p. with JR-CSF, 1×10^3 TCID50 per mouse and HIV YU-2, 1×106 TCID50 per mouse. HIV RNA plasma levels were measured by RT-PCR (Amplicor HIV-1 test or AmpliPrep/COBAS TaqMan HIV-1 Test, Roche) at various times after infection.
# [6] = tested on: HIV-1 strains (clade B, clade C and recombinants clades); assay: p24 inhibition in PBMCs infected with different HIV-1 strains (patient isolates); type: cell-based; conditions: 5 μM, 6 days pi, subtype B, C and recombinant viruses
# Procedure: FIG. 2. HIV p24 inhibition of Compound 22 from different HIV-1 strains. A) Different HIV-1 strains (clade B, clade C and recombinants clades) were used to infect PBMCs from three different donors in the absence of presence of 5 μM of Compound 22. Supernatant was harvested 6 days pi and viral capsid protein p24 antigen was quantitated using standard ELISA protocol.
# [7] = tested on: HIV-1 strain YU2; assay: HIV-1 p24 production in infected monocyte derived macrophages (ELISA); type: cell-based; conditions: Human immunodeficiency virus 1, Primary macrophage; primary macrophages infected with Yu-2, at 0.1 μM; read-out: inhibition levels of virus replication (p24)
# From the text: FIG. 1. Potency of quinoline derivatives to inhibit HIV-1 production in PBMC- and macrophages-infected cells. […] Each point represents 6 donors. B) HIV-1 strain YU2 was used to infect triplicate of monocyte derived-macrophages from different donors in the absence or presence of increasing concentrations of Compound 22. […] Each point represents 8 donors. To generate monocyte derived macrophages (MDMs), monocytes were isolated using CD14 microbeads (catalog no. 130-050-201; Miltenyi) and cultured in X-VIVO10 medium (Lonza) supplemented with GM-CSF 1000 U/ml and M-CSF 100 ng/ml for 6 days. Monocytes were seeded at a cell count of 50,000 cells per well in a 96 well plate. After 6 days medium was replaced with X-VIVO10 w/o Cytokines. After 2 days Macrophages were treated with Compound 22 and/or its N-glucuronide metabolite o/n and next day infected with Yu-2 virus for 6 hrs, washed with PBS and cultured in medium containing the compounds for 12 days. Supernatant for p24 Elisa was collected 2 times a week. Cells were treated with 0.01 μM up to 30 μM and p24 antigen levels were monitored in culture supernatant over a 12 day period. Cell culture supernatant HIV p24 titration was performed by ELISA with Ingen Innotest kit (Ingen Ref 80564) according to the manufacturer's instructions.
# [8] = tested on: PBMCs; assay: Lymphocyte populations in treated PBMCs; type: cell-based, human; conditions: PBMCs under treatment
# [9] = 20 mg/kg twice a day, FACS at day 15
smiles,measurement,setting,value
"FC(F)(F)Oc1ccc(Nc2ccc3cccc(Cl)c3n2)cc1 [Compound 22, 8-chloro-N-(4-(trifluoromethoxy)phenyl)quinolin-2-amine]",inhibition of replication of viral strains harbouring resistance mutations (RT activity),[1],very efficiently inhibits
same,viral load (viral RNA),"[2]; 20 mg/kg twice a day oral gavage, 15 days of treatment",significantly reduce the viral load
same,CD8+/CD4+ ratio,[2]; [9],restores CD8+/CD4+ ratio back to that of non-infected mice
same,depletion of CD4+ cells following infection,[2]; [9],prevents depletion of CD4+ cells
same,engraftment values of CD45+ cells and ratio of CD8+/CD4+,[3],neither alters engraftment values of CD45+ cells nor the ratio of CD8+/CD4+
same,cell viability,[4],not decreased
same,viral load during treatment,"[5]; 40 mg/kg daily, 30 days of treatment",reduced the viral load
same,time the viral load remained low after treatment termination,[5]; after 30 days of treatment,at least 50 days
same,inhibitory effect on HIV-1 subtypes (p24),[6],strong inhibitory effect
same,inhibition at 0.1 µM,[7],≤ 90%
same,populations of lymphocytes present in PBMCs,[8],did not alter
